Usually pKi stands for −log10 of the Ki, conventionally taken in molar units. As usually defined, the logP is a log measure of how a compound divides between an organic and an aqueous phase. By clearance is commonly meant the volume of plasma or blood freed of the substance per unit of time. One may read the solubility as the concentration that dissolves in the medium under given conditions. As a reminder, the fraction unbound is the share of the substance not bound to proteins or other matrix. A word on the pIC50: it is the negative decadic logarithm of the IC50, by convention in mol/L.

pIC50, pKi: −log10 of the molar value. ≈ marks a conversion by molar mass, not a printed value. Bounds are passed on as bounds.

The target of one series is Cannabinoid receptor 1 (Homo sapiens, UniProt P21554). As to the kind of experiment: Binding affinity to human CB1 receptor expressed in CHO cells by radioligand displacement based scintillation counting analysis. Type of series: cell-based. A general note: Loss of bound radioactivity is the signal in a displacement assay; it reports binding, not function.
Series [1] can be described thus: Lipophilicity, log P of the compound by HPLC analysis. Type of series: physicochemical.
Series [2] in a line: Clearance in Sprague-Dawley rat at 3 mg/kg, iv. The following applies: in vivo.
Series [3] concerns Rattus norvegicus. As to the kind of experiment: Reduction in food intake in nonfasted po dosed Sprague-Dawley rat measured for 20 hrs. Type of series: functional. The note with it: read-out: MED.
Series [4] is described as follows: Terminal half life in Sprague-Dawley rat at 3 mg/kg, iv. Type of series: ADME, organism-based. Also on record: dose 3 mg/kg, route intravenous. The note with it: in vivo, read-out: beta t1/2 (converted).
In the next series the test system is Liver microsome. As to the kind of experiment: Clearance in rat liver microsomes at 1 to 3 uM after 20 mins by LC/MS/MS analysis. On the technique in general: Microsomes from liver hold many membrane-bound enzymes, among them those of drug oxidation.
Series [5] can be described thus: Aqueous solubility of the compound. Type of series: physicochemical. The following applies: buffer.
Series [6] in a line: Fraction unbound in rat plasma at 10 uM by equilibrium dialysis method. Type of series: ADME, cell-free. (In equilibrium dialysis free small molecules cross a membrane that holds back macromolecules.)
The target in a further series is Cytochrome P450 2C19 (Homo sapiens, UniProt P33261). As to the kind of experiment: Inhibition of human recombinant CYP2C19. Type of series: ADME.
In series [7] the test system is Rattus norvegicus. As to the kind of experiment: Reduction in food intake in nonfasted Sprague-Dawley rat at 3 mg/kg, po measured for 8 hrs. The format is functional. On the set-up: scale not given: the % may be the effect or the level left.
Series [8] has as its system Rattus norvegicus. As to the kind of experiment: Reduction in food intake in nonfasted po dosed Sprague-Dawley rat measured for 8 hrs. Type of series: functional. The note with it: read-out: MED.
A further series addresses Cytochrome P450 2C9 (Homo sapiens, UniProt P11712). As to the kind of experiment: Inhibition of human recombinant CYP2C9. The format is ADME.
Another series concerns the target Cytochrome P450 3A4 (Homo sapiens, UniProt P08684). As to the kind of experiment: Inhibition of human recombinant CYP3A4.
Series [9] can be described thus: Elimination half life in iv dosed dog. Type of series: ADME, organism-based, Canis lupus familiaris. The note with it: in vivo, read-out: beta t1/2 (converted).
Series [10] is described as follows: Elimination half life in iv dosed cynomolgus monkey. Type of series: ADME, organism-based, Macaca fascicularis. The following applies: in vivo, read-out: beta t1/2 (converted).

Cytochrome P450 2C9, sequence (P11712 whole entry): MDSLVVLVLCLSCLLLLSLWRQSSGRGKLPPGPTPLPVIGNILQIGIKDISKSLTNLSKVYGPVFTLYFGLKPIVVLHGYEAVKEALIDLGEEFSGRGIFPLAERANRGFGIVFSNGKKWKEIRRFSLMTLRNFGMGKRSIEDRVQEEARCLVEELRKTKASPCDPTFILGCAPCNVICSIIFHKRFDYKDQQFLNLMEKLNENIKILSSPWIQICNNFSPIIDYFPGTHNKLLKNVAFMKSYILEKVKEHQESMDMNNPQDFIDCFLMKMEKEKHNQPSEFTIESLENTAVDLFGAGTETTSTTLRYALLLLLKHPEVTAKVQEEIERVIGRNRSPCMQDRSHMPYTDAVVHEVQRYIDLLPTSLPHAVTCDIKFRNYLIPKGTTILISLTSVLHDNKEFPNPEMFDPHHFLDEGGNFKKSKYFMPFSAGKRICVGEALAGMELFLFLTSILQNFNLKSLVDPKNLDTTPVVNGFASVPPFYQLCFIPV
Cannabinoid receptor 1, sequence (P21554 whole entry): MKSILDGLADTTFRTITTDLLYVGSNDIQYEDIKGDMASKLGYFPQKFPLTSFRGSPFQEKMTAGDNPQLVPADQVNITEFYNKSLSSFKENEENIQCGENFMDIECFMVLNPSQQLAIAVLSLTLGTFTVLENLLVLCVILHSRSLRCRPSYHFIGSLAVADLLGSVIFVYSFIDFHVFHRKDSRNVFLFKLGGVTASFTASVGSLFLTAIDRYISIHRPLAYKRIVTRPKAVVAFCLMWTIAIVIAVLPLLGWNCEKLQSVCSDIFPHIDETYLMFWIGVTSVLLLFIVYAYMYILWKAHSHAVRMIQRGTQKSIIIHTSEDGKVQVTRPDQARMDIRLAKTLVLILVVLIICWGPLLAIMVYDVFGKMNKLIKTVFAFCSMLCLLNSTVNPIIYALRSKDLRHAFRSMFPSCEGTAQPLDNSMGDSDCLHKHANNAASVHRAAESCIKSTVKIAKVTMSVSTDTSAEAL
Cytochrome P450 2C19, sequence (P33261 whole entry): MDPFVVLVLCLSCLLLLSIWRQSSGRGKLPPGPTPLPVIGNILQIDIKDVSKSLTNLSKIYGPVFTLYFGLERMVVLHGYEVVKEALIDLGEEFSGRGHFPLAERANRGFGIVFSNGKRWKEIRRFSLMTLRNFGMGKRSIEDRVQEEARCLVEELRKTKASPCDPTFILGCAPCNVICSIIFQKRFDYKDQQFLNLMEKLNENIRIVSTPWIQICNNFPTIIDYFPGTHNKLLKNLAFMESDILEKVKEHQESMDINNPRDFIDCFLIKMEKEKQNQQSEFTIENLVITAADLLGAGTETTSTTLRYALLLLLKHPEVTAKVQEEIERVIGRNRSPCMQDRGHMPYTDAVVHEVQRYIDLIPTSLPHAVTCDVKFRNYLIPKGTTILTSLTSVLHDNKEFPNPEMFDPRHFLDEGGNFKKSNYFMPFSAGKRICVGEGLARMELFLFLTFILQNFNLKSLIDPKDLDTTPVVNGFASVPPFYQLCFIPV
Cytochrome P450 3A4, sequence (P08684 whole entry): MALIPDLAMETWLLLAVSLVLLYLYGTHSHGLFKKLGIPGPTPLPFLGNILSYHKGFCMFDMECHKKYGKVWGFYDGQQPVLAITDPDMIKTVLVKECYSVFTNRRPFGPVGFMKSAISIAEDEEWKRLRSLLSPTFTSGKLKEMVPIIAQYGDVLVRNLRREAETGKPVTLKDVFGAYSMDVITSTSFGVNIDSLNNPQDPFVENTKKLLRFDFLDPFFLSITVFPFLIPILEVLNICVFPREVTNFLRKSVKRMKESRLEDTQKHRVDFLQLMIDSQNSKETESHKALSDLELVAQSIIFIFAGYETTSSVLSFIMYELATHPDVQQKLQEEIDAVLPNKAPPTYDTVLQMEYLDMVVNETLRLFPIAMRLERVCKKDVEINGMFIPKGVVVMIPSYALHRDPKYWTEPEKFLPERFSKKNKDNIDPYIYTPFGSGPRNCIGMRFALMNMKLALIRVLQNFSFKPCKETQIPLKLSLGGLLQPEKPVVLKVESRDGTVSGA

Take `O=c1n(Cc2ccc(C(F)(F)F)nc2)nc2c(-c3ccncc3)c(-c3ccc(Cl)cc3)cnn12`: the negative logarithm of the Ki (pKi) on Cannabinoid receptor 1 was 7.92. The compound also had a logP in series [1] of 3.2. Moreover, the clearance in series [2] is 0.4 mL/min/kg. In addition, in the series with Rattus norvegicus [3], the minimal effective dose turned out to be 0.3 mg/kg. Further, the half-life in [4] was 15 h.

As to `CCCn1nc2c(-c3ccc(Cl)cc3)c(-c3ccc(C#N)cc3)c(=O)n(Cc3ccc(C(F)(F)F)nc3C)n2c1=O`, at Cannabinoid receptor 1, the pKi was 8.77. The compound further registered a lipophilicity (logP) in series [1] of 5.1. The same compound had a clearance in [2] of 29 mL/min/kg. This compound returned a CLH with Liver microsome of 0.17 nmol/min/mg. The half-life in series [4] is 29 h.

`Cc1nn2c(=O)n(Cc3ccc(C(F)(F)F)nc3)nc2c(-c2ccncc2)c1-c1ccc(Cl)cc1` had a negative-log Ki (pKi) at Cannabinoid receptor 1 of 6.68. In series [1], this compound gave a logP of 3.3.

At Cannabinoid receptor 1, `COc1nn2c(=O)n(Cc3ccc(C(F)(F)F)nc3)nc2c(-c2ccncc2)c1-c1ccc(Cl)cc1` gave a pKi of 8.00. The logP in series [1] stood at 3.7. Also, the minimal effective dose with Rattus norvegicus [3] came to 3 mg/kg. Also, the half-life in series [4] was 17 h.

For `O=c1[nH]n2c(=O)n(Cc3ccc(C(F)(F)F)nc3)nc2c(-c2ccncc2)c1-c1ccc(Cl)cc1`, on Cannabinoid receptor 1, the negative-log Ki (pKi) was 5.40. In series [1], this compound came in with a logP of 2.5.

At Cannabinoid receptor 1, `Cn1c(=O)c(-c2ccc(Cl)cc2)c(-c2ccncc2)c2nn(Cc3ccc(C(F)(F)F)nc3)c(=O)n21` showed a pKi of 7.74. Moreover, in [1], the log partition coefficient (logP) was determined as 3.5. For the same compound, the minimal effective dose with Rattus norvegicus [3] worked out at 1 mg/kg. Also, in series [5], the concentration in solution (solubility) came to 1 µg/mL (≈ 1.95 µM). Moreover, in series [4], the half-life is 35 h.

At Cannabinoid receptor 1, `N#Cc1ccc(Cn2nc3c(-c4ccncc4)c(-c4ccc(Cl)cc4)c(=O)n(Cc4ccc(C#N)cc4)n3c2=O)cc1` had a pKi of 8.38.

Compound `Cn1nc2c(-c3ccncc3)c(-c3ccc(Cl)cc3)c(=O)n(Cc3ccc(C#N)cc3)n2c1=O` had a negative-log Ki (pKi) at Cannabinoid receptor 1 of 6.67.

Consider `Cn1nc2c(-c3ccc(Cl)cc3)c(-c3ccncc3)c(=O)n(Cc3ccc(C#N)cc3)n2c1=O`, for which, in series [6], the fraction unbound at 10 µM worked out at 0.05. On Cannabinoid receptor 1, this compound gave a pKi of 7.54. In addition, the logP in [1] amounted to 3. In [4], the half-life was 3.5 h.

As to `Cn1nc2c(-c3ccc(Cl)cc3)c(-c3ccncc3)c(=O)n(Cc3ccc(C(F)(F)F)nc3)n2c1=O`, the pIC50 at Cytochrome P450 2C19 was 5.37; on Cytochrome P450 2C9, 5.72. Besides, the Activity with Rattus norvegicus [7] was found to be 21%. In addition, the pKi at Cannabinoid receptor 1 was 7.55. Further, in the series with Rattus norvegicus [8], the minimal effective dose was determined as 3 mg/kg. In addition, the concentration in solution in [5] (solubility) came to 40 µg/mL (≈ 78 µM). In addition, the half-life in series [4] was 6 h.

On to `Cc1nc(C(F)(F)F)ccc1Cn1c(=O)c(-c2ccncc2)c(-c2ccc(Cl)cc2)c2nn(C)c(=O)n21`, for which the pIC50 at Cytochrome P450 2C19 was 6.15; at Cytochrome P450 2C9, 5.54; at Cytochrome P450 3A4, 5.17. In the series with Rattus norvegicus [7], the Activity stood at 33%. Besides, on Cannabinoid receptor 1, the negative logarithm of the Ki (pKi) was 8.05. Besides, the minimal effective dose in the series on Rattus norvegicus [8] is 3 mg/kg. The compound further registered a clearance in series [2] of 6.3 mL/min/kg. For the same compound, in [4], the half-life is 3.3 h.

Regarding `CCn1nc2c(-c3ccc(Cl)cc3)c(-c3ccncc3)c(=O)n(Cc3ccc(C(F)(F)F)nc3)n2c1=O`, the figures for the pIC50 at Cytochrome P450 2C19, on Cytochrome P450 2C9 and at Cytochrome P450 3A4 were 4.96, 5.31 and 4.74, respectively. At Cannabinoid receptor 1, this compound had a pKi of 7.82. In addition, the log partition coefficient (logP) in series [1] was determined as 4. The same compound registered a clearance in series [2] of 37 mL/min/kg. The half-life in series [4] was 2.4 h.

As for `CCn1nc2c(-c3ccc(Cl)cc3)c(-c3ccncc3C)c(=O)n(Cc3ccc(C(F)(F)F)nc3C)n2c1=O`, the results for the pIC50 on Cytochrome P450 2C19, at Cytochrome P450 2C9 and on Cytochrome P450 3A4 were 4.49, 5.30 and less than 4.40, respectively. The compound further gave a pKi at Cannabinoid receptor 1 of 8.08. The compound also gave a logP in [1] of 4.2.

Turning to `CCn1nc2c(-c3ccc(Cl)cc3)c(-c3ccc(C#N)cc3)c(=O)n(Cc3ccc(C(F)(F)F)nc3C)n2c1=O`, the pIC50 on Cytochrome P450 2C19, at Cytochrome P450 2C9 and on Cytochrome P450 3A4 was less than 4.40 each time. This compound had a pKi at Cannabinoid receptor 1 of 8.85. Moreover, the half-life in series [9] is 70 h; in [10], 40 h; in series [4], 7 h. In [1], the logP worked out at 4.6. The compound also registered a solubility in [5] of 3 µg/mL (≈ 5.31 µM).
